Laboratory results: PMC12015462, “Prioritization of novel anti-infective stilbene derivatives by combining metabolomic data organization and a stringent 3R-infection model in a knowledge graph” (RSC Advances, 2025)
Where two headings read alike, the source gives them in different places.

Legend:
Format in all cases: cell-based
Mycobacterium marinum [1] = assay: Infection assay: intracellular M. marinum growth (luminescence) in D. discoideum; details: for activity at 0.411523 µM / activity at 1.23457 µM / activity at 3.7037 µM / activity at 11.1111 µM / activity at 33.3333 µM / activity at 100 µM: 72 h; for activity at 0.411523 µM: conc 0.411522634 uM; for activity at 1.23457 µM: conc 1.234567901 uM; for activity at 3.7037 µM: conc 3.703703704 uM; for activity at 11.1111 µM: conc 11.11111111 uM; for activity at 33.3333 µM: conc 33.33333333 uM; for activity at 100 µM: conc 100 uM; for IC50: interpolated between the two concentrations closest to residual growth 0.5, top concentration 100 μM
Text: (§1) Since fractions were not weighed individually, the injection mass was used to calculate an average mass per fraction and thus a nominal mass concentration.

Dictyostelium discoideum = assay: Infection assay: growth of the host amoeba D. discoideum (fluorescence) in infection; details: for activity at 0.411523 µM / activity at 1.23457 µM / activity at 3.7037 µM / activity at 11.1111 µM / activity at 33.3333 µM / activity at 100 µM: 72 h; for IC50: read-out: IC50 Dd in infection (μM)
Text: as §1

Mycobacterium marinum [2] = assay: Anti-biotic assay: M. marinum growth in broth (luminescence); details: for activity at 0.411523 µM / activity at 1.23457 µM / activity at 3.7037 µM / activity at 11.1111 µM / activity at 33.3333 µM / activity at 100 µM: 72 h; for IC50: read-out: IC50 Mm in broth (μM)
Procedure: as §1
Plating bacteria and compounds or fractions was performed analogously to the infection assay described above. Bacteria growth was monitored with the Agilent BioTek H1 plate reader by recording luminescence at 32 °C.
The prepared plates were sealed and stored at 4 °C overnight. On the day of the experiment, nine 10 cm Petri dishes were infected (as described before) and grouped into three pools.

[3] = vehicle control set at 1, read-out: mean normalized residual growth, Mm in infection
[4] = vehicle control set at 1, read-out: median normalized residual growth, Mm in infection
[5] = read-out: mean normalized residual growth, Dd in infection
[6] = read-out: median normalized residual growth, Dd in infection
[7] = read-out: mean (normalised M. marinum growth, Mm in broth)
[8] = read-out: median (normalised M. marinum growth, Mm in broth)

| Structure (SMILES) | activity at 0.411523 µM (Mycobacterium marinum [1]; [3]) | activity at 0.411523 µM (Mycobacterium marinum [1]; [4]) | activity at 1.23457 µM (Mycobacterium marinum [1]; [3]) | activity at 1.23457 µM (Mycobacterium marinum [1]; [4]) | activity at 3.7037 µM (Mycobacterium marinum [1]; [3]) | activity at 3.7037 µM (Mycobacterium marinum [1]; [4]) | activity at 11.1111 µM (Mycobacterium marinum [1]; [3]) | activity at 11.1111 µM (Mycobacterium marinum [1]; [4]) | activity at 33.3333 µM (Mycobacterium marinum [1]; [3]) | activity at 33.3333 µM (Mycobacterium marinum [1]; [4]) | activity at 100 µM (Mycobacterium marinum [1]; [3]) | activity at 100 µM (Mycobacterium marinum [1]; [4]) | IC50 (Mycobacterium marinum [1]) | activity at 0.411523 µM (Dictyostelium discoideum; [5]) | activity at 1.23457 µM (Dictyostelium discoideum; [5]) | activity at 3.7037 µM (Dictyostelium discoideum; [5]) | activity at 11.1111 µM (Dictyostelium discoideum; [5]) | activity at 33.3333 µM (Dictyostelium discoideum; [5]) | activity at 100 µM (Dictyostelium discoideum; [5]) | activity at 0.411523 µM (Dictyostelium discoideum; [6]) | also measured |
| --- | --- | --- | --- | --- | --- | --- | --- | --- | --- | --- | --- | --- | --- | --- | --- | --- | --- | --- | --- | --- | --- |
| Oc1ccc(/C=C/c2cc(O)c3c(c2)O[C@@H](c2ccc(O)cc2)[C@@H]3c2cc(O)c3c(c2)O[C@H](c2ccc(O)cc2)[C@H]3c2cc(O)cc(O)c2)cc1 [Compound 6, (−)-Gnetin E] | 165% | 154% | 202% | 184% | 196% | 172% | 169% | 155% | 98.2% | 95.4% | 46.3% | 49.1% | 66.7 µM | 119% | 116% | 112% | 114% | 95.3% | 35.6% | 93.6% | activity at 1.23457 µM (Dictyostelium discoideum; [6]): 89.2%; activity at 3.7037 µM (Dictyostelium discoideum; [6]): 92%; activity at 11.1111 µM (Dictyostelium discoideum; [6]): 88.5%; activity at 33.3333 µM (Dictyostelium discoideum; [6]): 86.1%; activity at 100 µM (Dictyostelium discoideum; [6]): 56.8%; IC50 (Dictyostelium discoideum): > 100 µM; activity at 0.411523 µM (Mycobacterium marinum [2]; [7]): 134%; activity at 1.23457 µM (Mycobacterium marinum [2]; [7]): 114%; activity at 3.7037 µM (Mycobacterium marinum [2]; [7]): 113%; activity at 11.1111 µM (Mycobacterium marinum [2]; [7]): 114%; activity at 33.3333 µM (Mycobacterium marinum [2]; [7]): 118%; activity at 100 µM (Mycobacterium marinum [2]; [7]): 110%; activity at 0.411523 µM (Mycobacterium marinum [2]; [8]): 135%; activity at 1.23457 µM (Mycobacterium marinum [2]; [8]): 109%; activity at 3.7037 µM (Mycobacterium marinum [2]; [8]): 114%; activity at 11.1111 µM (Mycobacterium marinum [2]; [8]): 114%; activity at 33.3333 µM (Mycobacterium marinum [2]; [8]): 119%; activity at 100 µM (Mycobacterium marinum [2]; [8]): 110%; IC50 (Mycobacterium marinum [2]): > 100 µM |
| Oc1ccc(/C=C/c2cc(O)c3c(c2)O[C@H](c2ccc(O)cc2)[C@H]3c2cc(O)c3c(c2)O[C@H](c2ccc(O)cc2)[C@H]3c2cc(O)c3c(c2)O[C@H](c2ccc(O)cc2O)[C@H]3c2cc(O)cc(O)c2)cc1 [Compound 7, Macrostachyol A] | 139% | 130% | 158% | 153% | 163% | 154% | 151% | 157% | 80.7% | 76% | 33.4% | 37.5% | 66.7 µM | 143% | 146% | 119% | 111% | 63% | -92.9% | 91.3% | activity at 1.23457 µM (Dictyostelium discoideum; [6]): 90.3%; activity at 3.7037 µM (Dictyostelium discoideum; [6]): 92%; activity at 11.1111 µM (Dictyostelium discoideum; [6]): 91%; activity at 33.3333 µM (Dictyostelium discoideum; [6]): 82.1%; activity at 100 µM (Dictyostelium discoideum; [6]): 3.73%; IC50 (Dictyostelium discoideum): 66.7 µM; activity at 0.411523 µM (Mycobacterium marinum [2]; [7]): 118%; activity at 1.23457 µM (Mycobacterium marinum [2]; [7]): 118%; activity at 3.7037 µM (Mycobacterium marinum [2]; [7]): 114%; activity at 11.1111 µM (Mycobacterium marinum [2]; [7]): 106%; activity at 33.3333 µM (Mycobacterium marinum [2]; [7]): 112%; activity at 100 µM (Mycobacterium marinum [2]; [7]): 107%; activity at 0.411523 µM (Mycobacterium marinum [2]; [8]): 117%; activity at 1.23457 µM (Mycobacterium marinum [2]; [8]): 123%; activity at 3.7037 µM (Mycobacterium marinum [2]; [8]): 116%; activity at 11.1111 µM (Mycobacterium marinum [2]; [8]): 105%; activity at 33.3333 µM (Mycobacterium marinum [2]; [8]): 114%; activity at 100 µM (Mycobacterium marinum [2]; [8]): 109%; IC50 (Mycobacterium marinum [2]): > 100 µM |
| Oc1ccc(/C=C/c2cc(O)c3c(c2)O[C@H](c2ccc(O)cc2)[C@H]3c2cc(O)c3c(c2)O[C@H](c2ccc(O)cc2)[C@H]3c2cc(O)c3c(c2)O[C@H](c2ccc(O)cc2)[C@H]3c2cc(O)cc(O)c2)cc1 [Compound 8, Gnemonol B] | 132% | 146% | 105% | 94.6% | 127% | 144% | 124% | 128% | 112% | 117% | 61% | 45.3% | 66.7 µM | 159% | 139% | 139% | 120% | 114% | 51.3% | 92.7% | activity at 1.23457 µM (Dictyostelium discoideum; [6]): 85.7%; activity at 3.7037 µM (Dictyostelium discoideum; [6]): 92.1%; activity at 11.1111 µM (Dictyostelium discoideum; [6]): 88.6%; activity at 33.3333 µM (Dictyostelium discoideum; [6]): 81.5%; activity at 100 µM (Dictyostelium discoideum; [6]): 33.4%; IC50 (Dictyostelium discoideum): 66.7 µM; activity at 0.411523 µM (Mycobacterium marinum [2]; [7]): 118%; activity at 1.23457 µM (Mycobacterium marinum [2]; [7]): 111%; activity at 3.7037 µM (Mycobacterium marinum [2]; [7]): 113%; activity at 11.1111 µM (Mycobacterium marinum [2]; [7]): 119%; activity at 33.3333 µM (Mycobacterium marinum [2]; [7]): 117%; activity at 100 µM (Mycobacterium marinum [2]; [7]): 114%; activity at 0.411523 µM (Mycobacterium marinum [2]; [8]): 125%; activity at 1.23457 µM (Mycobacterium marinum [2]; [8]): 116%; activity at 3.7037 µM (Mycobacterium marinum [2]; [8]): 117%; activity at 11.1111 µM (Mycobacterium marinum [2]; [8]): 115%; activity at 33.3333 µM (Mycobacterium marinum [2]; [8]): 120%; activity at 100 µM (Mycobacterium marinum [2]; [8]): 115%; IC50 (Mycobacterium marinum [2]): > 100 µM |
| Oc1ccc([C@@H]2Oc3cc(O)ccc3[C@H]3[C@H](c4cc(O)cc(O)c4)c4c(O)cc(O)cc4[C@H]32)cc1 [Compound 9, (−)-Gnemontanin G] | 59% | 69.2% | 82.5% | 85.7% | 76.2% | 74.2% | 58.4% | 59.5% | 65.6% | 72.4% | 71.9% | 75.7% | > 100 µM | 58.2% | 70.8% | 60.4% | 64.9% | 72.5% | 103% | 95.8% | activity at 1.23457 µM (Dictyostelium discoideum; [6]): 97.6%; activity at 3.7037 µM (Dictyostelium discoideum; [6]): 99.6%; activity at 11.1111 µM (Dictyostelium discoideum; [6]): 93.8%; activity at 33.3333 µM (Dictyostelium discoideum; [6]): 91.4%; activity at 100 µM (Dictyostelium discoideum; [6]): 91.6%; IC50 (Dictyostelium discoideum): > 100 µM; activity at 0.411523 µM (Mycobacterium marinum [2]; [7]): 87.4%; activity at 1.23457 µM (Mycobacterium marinum [2]; [7]): 93.9%; activity at 3.7037 µM (Mycobacterium marinum [2]; [7]): 92.7%; activity at 11.1111 µM (Mycobacterium marinum [2]; [7]): 81.3%; activity at 33.3333 µM (Mycobacterium marinum [2]; [7]): 89.2%; activity at 100 µM (Mycobacterium marinum [2]; [7]): 92.6%; activity at 0.411523 µM (Mycobacterium marinum [2]; [8]): 86.6%; activity at 1.23457 µM (Mycobacterium marinum [2]; [8]): 96.7%; activity at 3.7037 µM (Mycobacterium marinum [2]; [8]): 92.3%; activity at 11.1111 µM (Mycobacterium marinum [2]; [8]): 78.6%; activity at 33.3333 µM (Mycobacterium marinum [2]; [8]): 87.9%; activity at 100 µM (Mycobacterium marinum [2]; [8]): 91.7% |
